Seven molecules from patent US20060099170A1, “Compositions for inducing increased levels of beta-chemokines and methods of use therefor” (priority 2002, published 2006) can be followed below.

The structures appear in SMILES notation.

For experiment [1], the system named is CD8 lymphocytes. Put plainly: β-chemokine levels (ELISA) in cultures of purified activated CD8 lymphocytes. Format: cell-based, human.
Experiment [2] concerns CD8 lymphocytes. Format: cell-based, human. The following applies: 0.01 μg/ml nocodazole, 48 h. The method, then: (§1) Cell proliferation was measured by the trypan blue staining viability test, [^3H]thymidine incorporation in DNA, and the 3-(4,5-dimethylthiazol-2-yl)-2,5-diphenyl tetrazolium bromide (MTT) assay (Roche).
The impact of cell cycle arrest in β-chemokine levels was evaluated by measuring chemokine levels in supernatants of cell cultures containing compounds known to cause cell cycle arrest. Levels of the β-chemokines RANTES, MIP-1α, and MIP-1β were measured by using commercial ELISA kits (R &D Systems). Cell cycle arrest in G1 was induced by culturing of the cells in the presence of aphidicolin (APH), sodium butyrate (SB), hydroxyurea (HU), roscovitine (RC), or olomoucine (OL). Arrest in late S phase was induced by culture of cells in the presence of resveratrol. G2 cycle arrest was induced by the compounds nocodazole and Colcemid. All compounds were purchased from Sigma except RC and OL, which were from Calbiochem. Arrest of cell cycle progression in the presence of G1 cytostatic agents was measured by propidium iodide staining followed by fluorescence-activated cell sorter (FACS) analysis (Noguchi, et al., 1991). This method may be used to test any compound for ability to arrest the G1 phase in a cell cycle.
In the experiments described thus far, total PBMCs had been used. […] Negatively selected CD8^+ lymphocytes were activated by anti-CD3 plus IL-2 treatment for 3 days. Activated cells were cultured in the presence of IL-2 and HU (100 and 200 μM) for 24 or 48 h, time points at which cell proliferation and supernatant chemokine levels were assayed. Cell proliferation was determined by trypan blue staining, [^3H]thymidine incorporation in DNA, and percentage of cells in S phase as assessed by propidium iodide staining (FIG. 4). […] Similarly, the percentage of cells in S phase increased in the absence of HU, whereas it decreased in its presence. […]
To investigate whether increased levels of supernatant chemokines upon cell cycle arrest are cell cycle phase-specific, the effect of G2 arrest in chemokine production next was evaluated. […]

The subject of experiment [3] is activated PBMCs. Nature of the experiment: β-chemokine levels (ELISA) in supernatants of activated PBMCs cultured with cell cycle arresting compounds. The class given is cell-based, human. To be noted: PHA-activated PBMCs; for chemokine levels: at G1 cytostatic concentrations of the drug. On the technique in general: ELISA stands for enzyme-linked immunosorbent assay.

The test system of experiment [4] is activated PBMCs. Put plainly: Cell number / proliferation of activated PBMCs (trypan blue). Format: cell-based, human. To be noted: 0.5 μM APH. How it is done: as §1
To this end, β-chemokine levels (production or availability) by activated PBMCs cultured in the presence of HU was investigated. HU is a G1 cytostatic drug that, by depleting intracellular nucleotide pools, arrests cell cycle progression in late G1 (Lori, et al., 1994). […] In the representative experiment depicted in FIG. 2, day 8 chemokine levels in cultures containing 100 μM HU were increased 3.4-fold for RANTES, 5.4-fold for MIP-1α, and 4-fold for MIP-1β compared with the untreated control. Because HU inhibits lymphocyte proliferation, chemokine values also were expressed as chemokine amount per viable cell. As expected, cell numbers were lower in the presence of the drug (FIG. 2C).
The agents evaluated were SB, APH, RC, and OL. SB and APH arrest the cell cycle in early and late G1, respectively (Korin, et al., 1998; Koostra, et al., 2000). RC and OL are purine-derivative drugs that arrest cell cycle progression in late G1 through inhibition of cyclin-dependent kinases (CDKs) (Gray, et al., 1999). […] The number of viable cells and chemokine levels are depicted. […]

A further experiment deals with HIV-1 ADA. Put plainly: Antiviral activity of TAK-779 with or without RAPA in PBMCs (p24). The class given is cell-based. The method, then:
For infection of PBMCs, fresh donor PBMCs were cultured for 7 days in medium containing IL-2. On day 7, cells were exposed to the virus for 3 h. Nonadsorbed virus was removed by washing cells with PBS three times. Infected cells were cultured in IL-2 medium. Infection of MDMs was carried out as described before (Pemo, et al. 1993). Unless otherwise indicated, PBMCs were infected by using a moi of 0.001, and monocyte-derived macrophages (MDMs) were infected by using a moi of 0.002. Virus growth was monitored in culture supernatants by measuring p24 antigen levels by ELISA (NEN) or by measuring viral RT activity in an RT assay (Willey, et al., 1988).
To test this hypothesis, donor PBMCs were cultured in IL-2 medium in the absence or presence of RAPA (1, 10, and 100 nM). […] Infected cells were cultured in the presence of RAPA (same concentration as during pretreatment) plus 0.1 nM TAK-779. Virus production was determined 7 days after infection (FIG. 11).

Regarding `COC(=O)Nc1nc2ccc(C(=O)c3cccs3)cc2[nH]1` [nocodazole], the chemokine content entry in the experiment with CD8 lymphocytes [1] (0.01 μg/ml nocodazole, 48 h, G2 arrest) was “lower than in the untreated controls”. The cell cycle distribution entry with CD8 lymphocytes [2] is given as “accumulation of cells in G2”.

As to `CCCC(=O)[O-].[Na+]` [SB, sodium butyrate], the chemokine levels result with activated PBMCs [3] is “increased chemokine levels”. With `C[C@@]1(CO)[C@H](O)CC[C@@]2(C)[C@H]1CC[C@H]1C[C@@H]3C[C@@]12CC[C@]3(O)CO` [APH, aphidicolin], the chemokine values entry in the experiment on activated PBMCs [3] (0.5 μM APH) is on record as “Increased chemokine values”. Besides, the cell proliferation result in the experiment with activated PBMCs [4] is given as “reduced cell proliferation”. For the molecule `CN[C@H]1CCc2cc(OC)c(OC)c(OC)c2-c2ccc(OC)c(=O)cc21` [Colcemid], the “chemokine content on G2 cycle arrest” value in the experiment with CD8 lymphocytes [1] (same as nocodazole (lower than untreated), data not shown) is recorded as “same results”.

In the case of `CC[C@H](CO)Nc1nc(NCc2ccccc2)c2ncn(C(C)C)c2n1` [RC, roscovitine], the chemokine levels result in the experiment with activated PBMCs [3] is listed as “increased chemokine levels”. In the case of `Cc1ccc(-c2ccc3c(c2)C=C(C(=O)Nc2ccc(C[N+](C)(C)C4CCOCC4)cc2)CCC3)cc1.[Cl-]` [TAK-779], the “inhibition of virus replication” value in the experiment with HIV-1 ADA (0.1 nM TAK-779, absence of RAPA, day 7) was determined as 21%. The results for the “virus inhibition due to TAK-779” value with HIV-1 ADA (0.1 nM TAK-779 in presence of 1 nM RAPA), in the experiment on HIV-1 ADA (0.1 nM TAK-779 in presence of 10 nM RAPA) and with HIV-1 ADA (0.1 nM TAK-779 in presence of 100 nM RAPA) were 74.5%, 89% and 96%, respectively. As for `Oc1ccc(C=Cc2cc(O)cc(O)c2)cc1` [resveratrol], the “chemokine levels on cell cycle arrest in late S” value with CD8 lymphocytes [1] (10 μM resveratrol, data not shown) is reported as “lower than the untreated control”.
